# Data taken from patent publication US20040082667A1, “Hangover treatment” (priority 2002, published 2004).
# Key:
# alcohol induced hangover = assay: focus group: treating an alcohol induced hangover; format: in vivo, human; conditions: eight subjects (four male, four female); approximately 0.06 ounces powder in approximately 8 ounces of water or juice, oral, morning after an average of 9.5 alcoholic drinks; self-reported by each subject
# Experimental: Each subject consumed an average of 9.5 alcoholic drinks in an average time period of 4.1 hours over the course of one evening. Each subject reported that they experienced the effects of an alcohol induced hangover the following morning. Upon rising, the subjects each ingested approximately 0.06 ounces of methylsulfonylmethane powder which had been mixed with approximately 8 ounces of water or juice. Each subject attested to the fact the effects of their alcohol induced hangover were relieved within less than one hour after ingesting the methylsulfonylmethane compound.
# [1] = fraction of the toxicity of common table salt; general statement, no test described; cited from earlier work
compound,measurement,setting,value
CS(C)(=O)=O [methylsulfonylmethane],time until effects of alcohol induced hangover were relieved after ingesting,alcohol induced hangover,less than one
same,toxicity level relative to common table salt,[1],1/7
